# In ChEMBL document CHEMBL4402583, “Rational Substitution of ε-Lysine for α-Lysine Enhances the Cell and Membrane Selectivity of Pore-Forming Melittin” (J Med Chem, 2020):
# Active and inactive are the calls of the source. No cut-off for these calls is given here.
# What was measured:
# [1] = Cytotoxicity against HDF cells assessed as minimum cytotoxic concentration incubated for 24 hrs by MTS assay; assay type: cell-based; details: human, HDF cells (NHDF, human dermal fibroblasts)
# [2] = test system: Pseudomonas aeruginosa; assay: Antibacterial activity against Pseudomonas aeruginosa assessed as reduction in bacterial growth incubated for 24 hrs by broth microdilution method; assay type: functional
# [3] = test system: Candida albicans; assay: Antifungal activity against Candida albicans assessed as reduction in fungal growth incubated for 24 hrs by broth microdilution method; assay type: functional
# [4] = test system: Lipid bilayer; assay: Induction of pore formation in negatively charged DOPE/DOPG large unilamellar vesicles assessed as calcein release at 0.39 to 50 uM measured for 60 mins by fluorescence based assay
# [5] = test system: Lipid bilayer; assay: Induction of pore formation in zwitterionic DOPC/cholesterol large unilamellar vesicles assessed as calcein release at 0.39 to 50 uM measured for 60 mins by fluorescence based assay
# [6] = test system: Staphylococcus aureus; assay: Antibacterial activity against methicillin-sensitive Staphylococcus aureus assessed as reduction in bacterial growth incubated for 24 hrs by broth microdilution method; assay type: functional
# [7] = test system: Staphylococcus aureus; assay: Antibacterial activity against methicillin-resistance Staphylococcus aureus assessed as reduction in bacterial growth incubated for 24 hrs by broth microdilution method; assay type: functional
# [8] = test system: Enterococcus; assay: Antibacterial activity against vancomycin-resistant Enterococcus assessed as reduction in bacterial growth incubated for 24 hrs by broth microdilution method; assay type: functional
# [9] = test system: Acinetobacter baumannii; assay: Antibacterial activity against multidrug-resistant Acinetobacter baumannii assessed as reduction in bacterial growth incubated for 24 hrs by broth microdilution method; assay type: functional
# [10] = test system: Enterobacteriaceae; assay: Antibacterial activity against Carbapenem-Resistant Enterobacteriaceae assessed as reduction in bacterial growth incubated for 24 hrs by broth microdilution method; assay type: functional
# [11] = test system: Enterococcus faecalis; assay: Antibacterial activity against vancomycin-resistant Enterococcus faecalis ATCC 29212 assessed as log10 reduction in bacterial viability at 2 to 4 times MIC incubated for 30 mins in MHB medium followed by reincubation on MH agar plate for 24 to 48 hrs by time kill kinetics analysis; assay type: functional
# [12] = test system: Enterococcus faecalis; assay: Antibacterial activity against vancomycin-resistant Enterococcus faecalis 1010 assessed as log10 reduction in bacterial viability at 2 to 4 times MIC incubated for 30 mins in MHB medium followed by reincubation on MH agar plate for 24 to 48 hrs by time kill kinetics analysis; assay type: functional
# [13] = test system: Enterococcus faecalis; assay: Antibacterial activity against vancomycin-resistant Enterococcus faecalis 1002 assessed as log10 reduction in bacterial viability at 2 to 4 times MIC incubated for 30 mins in MHB medium followed by reincubation on MH agar plate for 24 to 48 hrs by time kill kinetics analysis; assay type: functional
# [14] = test system: Acinetobacter baumannii; assay: Antibacterial activity against Acinetobacter baumannii 1001 assessed as reduction in bacterial viability at 2 or 4 times MIC incubated up to 24 hrs in MHB medium followed by reincubation on MH agar plate for 24 to 48 hrs by time kill kinetics assay; assay type: functional, organism-based
# [15] = test system: Escherichia coli; assay: Antibacterial activity against Escherichia coli 1004 assessed as reduction in bacterial viability at 2 or 4 times MIC incubated up to 24 hrs in MHB medium followed by reincubation on MH agar plate for 24 to 48 hrs by time kill kinetics assay; assay type: functional, organism-based
# [16] = test system: Klebsiella pneumoniae; assay: Antibacterial activity against Klebsiella pneumoniae 1008 assessed as reduction in bacterial viability at 2 or 4 times MIC incubated up to 24 hrs in MHB medium followed by reincubation on MH agar plate for 24 to 48 hrs by time kill kinetics assay; assay type: functional, organism-based
# [17] = test system: Enterococcus faecalis; assay: Induction of pore formation in intact vancomycin-resistant Enterococcus faecalis ATCC 29212 cell membrane assessed as SG uptake at 2 times MIC by SG dye based fluorescence based assay; assay type: organism-based
# [18] = test system: Enterococcus faecalis; assay: Induction of pore formation in intact vancomycin-resistant Enterococcus faecalis 1002 cell membrane assessed as SG uptake at 2 times MIC by SG dye based fluorescence based assay; assay type: organism-based
# [19] = test system: Acinetobacter baumannii; assay: Induction of pore formation in intact Acinetobacter baumannii 1001 cell membrane assessed as SG uptake at 2 times MIC by SG dye based fluorescence based assay; assay type: organism-based
# [20] = test system: Escherichia coli; assay: Induction of pore formation in intact Escherichia coli 1004 cell membrane assessed as SG uptake at 2 times MIC by SG dye based fluorescence based assay; assay type: organism-based
# [21] = Stability of the compound in rabbit tear fluid measured after 2 hrs by UPLC-MS analysis; assay type: ADME, Oryctolagus cuniculus
# [22] = Stability of the compound in rabbit tear fluids assessed as parent compound remaining measured after 4 hrs by UPLC-MS analysis; assay type: ADME, Oryctolagus cuniculus; details: tear fluid, read-out: Stability
# [23] = test system: NHDF; assay: Cytotoxicity against HDF cells assessed as reduction in metabolic activity at 16 ug/ml incubated for 24 hrs by MTS assay; assay type: ADME, cell-based; details: human
# [24] = test system: Lipid bilayer; assay: Induction of pore formation in negatively charged DOPE/DOPG large unilamellar vesicles assessed as ratio of peptide to lipid molar ratio that induces 50% calcein leakage measured for 60 mins by calcein dequenching based fluorescence based assay
# [25] = test system: Lipid bilayer; assay: Binding affinity to zwitterionic DOPC/cholesterol large unilamellar vesicles assessed as transformation of peptide secondary structure to alpha-helical conformation by CD spectropolarimetry
# [26] = Cytotoxicity against HDF cells assessed as minimum cytotoxic concentration incubated for 24 hrs by Alexa Fluor […] phalloidin-FITC/Hoescht dye staining based fluorescence microscopic analysis; assay type: cell-based; details: human, HDF cells (NHDF, human dermal fibroblasts)
# [27] = Cytotoxicity against HDF cells assessed as cell viability at 500 ug/ml incubated for 24 hrs by MTS assay relative to control; assay type: cell-based; details: human, HDF cells (NHDF, human dermal fibroblasts); read-out: Activity
# [28] = test system: NHDF; assay: Cytotoxicity against HDF cells assessed as truncation and reduction in cytoskeleton at 500 ug/ml incubated for 24 hrs by Alexa Fluor […] phalloidin-FITC/Hoescht dye staining based fluorescence microscopic analysis; assay type: cell-based; details: human
# [29] = test system: Acinetobacter baumannii; assay: Resistance index, ratio of MIC for Acinetobacter baumannii ATCC 19606 measured after 4 serial passages by broth microdilution method to MIC for Acinetobacter baumannii ATCC 19606 incubated for 24 hrs by broth microdilution method; assay type: functional, organism-based; details: ATCC 19606 = CIP 70.34 = JCM 6841
# [30] = test system: Staphylococcus aureus; assay: Antibacterial activity against Staphylococcus aureus assessed as reduction in bacterial growth incubated for 24 hrs by broth microdilution method; assay type: functional
# [31] = test system: NHDF; assay: Cytotoxicity against HDF cells assessed as reduction in metabolic activity at 32 ug/ml incubated for 24 hrs by MTS assay; assay type: ADME, cell-based; details: human
# [32] = test system: NHDF; assay: Cytotoxicity against HDF cells at 31.25 ug/ml incubated for 24 hrs by Alexa Fluor […] phalloidin-FITC/Hoescht dye staining based fluorescence microscopic analysis; assay type: cell-based; details: human
# [33] = test system: Staphylococcus aureus; assay: In vivo antibacterial activity against Staphylococcus aureus ATCC 29213 infected in C57BL/6 mouse assessed as reduction in bacterial burden by measuring log10 CFU/cornea at 0.3% administered topically as two times on day 1, four times on day 2 and two times on day 3 measured at 48 hrs post-final dose by 10 fold serial dilution method (reference value: 6.5 +/- 0.7 log10CFU); assay type: functional
Compound,MCC at 24 h [1] [µg/mL],MIC50 [2] [µg/mL],MIC [3] [µg/mL],MIC50 [3] [µg/mL],Activity [4],Activity [5],MIC50 [6] [µg/mL],MIC50 [7] [µg/mL],MIC [8] [µg/mL],MIC50 [8] [µg/mL],MIC [9] [µg/mL],MIC50 [9] [µg/mL],MIC [10] [µg/mL],MIC50 [10] [µg/mL],Ratio [24],Activity [25],MCC at 24 h [26] [µg/mL],MIC [2] [µg/mL],MIC [30] [µg/mL],Activity [31],other results
CC[C@H](C)[C@H](NC(=O)CN)C(=O)NCC(=O)N[C@@H](C)C(=O)N[C@H](C(=O)N[C@@H](CC(C)C)C(=O)N[C@@H](CCCCN)C(=O)N[C@H](C(=O)N[C@@H](CC(C)C)C(=O)N[C@H](C(=O)N[C@H](C(=O)NCC(=O)N[C@@H](CC(C)C)C(=O)N1CCC[C@H]1C(=O)N[C@@H](C)C(=O)N[C@@H](CC(C)C)C(=O)N[C@H](C(=O)N[C@@H](CO)C(=O)N[C@@H](Cc1c[nH]c2ccccc12)C(=O)N[C@H](C(=O)N[C@@H](CCCCN)C(=O)N[C@@H](CCCNC(=N)N)C(=O)N[C@@H](CCCCN)C(=O)N[C@@H](CCCNC(=N)N)C(=O)N[C@@H](CCC(N)=O)C(=O)N[C@@H](CCC(N)=O)C(N)=O)[C@@H](C)CC)[C@@H](C)CC)[C@@H](C)O)[C@@H](C)O)C(C)C)C(C)C [MELITTIN],> 8,16,4 to 8,4,Active,Active,4,4,0.5 to 8,4,2 to 4,4,8 to 32,8,0.04,Active,> 8,–,–,–,log(activity) [11]: >5; log(activity) [12]: >5; log(activity) [13]: >5; Activity [14]: Active; Activity [15]: Active; Activity [16]: Active; Activity [17]: Active; Activity [18]: Active; Activity [19]: Active; Activity [20]: Active; Stability [21]: Stable; remaining at 4 h [22]: 85.3%; Activity [23]: Toxic
CC[C@H](C)[C@H](NC(=O)CN)C(=O)NCC(=O)N[C@@H](C)C(=O)N[C@H](C(=O)N[C@@H](CC(C)C)C(=O)NCCC[C@@H](CN)C(=O)N[C@H](C(=O)N[C@@H](CC(C)C)C(=O)N[C@H](C(=O)N[C@H](C(=O)NCC(=O)N[C@@H](CC(C)C)C(=O)N1CCC[C@H]1C(=O)N[C@@H](C)C(=O)N[C@@H](CC(C)C)C(=O)N[C@H](C(=O)N[C@@H](CO)C(=O)N[C@@H](Cc1c[nH]c2ccccc12)C(=O)N[C@H](C(=O)NCCC[C@@H](CN)C(=O)N[C@@H](CCCNC(=N)N)C(=O)NCCC[C@@H](CN)C(=O)N[C@@H](CCCNC(=N)N)C(=O)N[C@@H](CCC(N)=O)C(=O)N[C@@H](CCC(N)=O)C(N)=O)[C@@H](C)CC)[C@@H](C)CC)[C@@H](C)O)[C@@H](C)O)C(C)C)C(C)C,–,32,4 to 8,4,–,–,64,64,4 to 16,8,4 to 8,8,4 to 64,8,–,–,–,16 to 64,–,–,"MIC [6]: 16 to 128 µg/mL; viability at 24 h, 500 ug/ml [27]: 102%; Activity [28]: Toxic"
GENTAMICIN,–,–,–,–,–,–,–,–,–,–,–,–,–,–,–,–,–,–,–,–,Ratio [29]: 16
CC[C@H](C)[C@H](NC(=O)CN)C(=O)NCC(=O)N[C@@H](C)C(=O)N[C@H](C(=O)N[C@@H](CC(C)C)C(=O)N[C@@H](CCCCN)C(=O)N[C@H](C(=O)N[C@@H](CC(C)C)C(=O)N[C@H](C(=O)N[C@H](C(=O)NCC(=O)N[C@@H](CC(C)C)C(=O)N1CCC[C@H]1C(=O)N[C@@H](C)C(=O)N[C@@H](CC(C)C)C(=O)N[C@H](C(=O)N[C@@H](CO)C(=O)N[C@@H](Cc1c[nH]c2ccccc12)C(=O)N[C@H](C(=O)N[C@@H](CCCCN)C(=O)N[C@@H](CCCNC(=N)N)C(=O)NCCC[C@@H](CN)C(=O)N[C@@H](CCCNC(=N)N)C(=O)N[C@@H](CCC(N)=O)C(=O)N[C@@H](CCC(N)=O)C(N)=O)[C@@H](C)CC)[C@@H](C)CC)[C@@H](C)O)[C@@H](C)O)C(C)C)C(C)C,> 16,–,4 to 8,–,Active,Active,–,–,–,–,–,–,–,–,0.15,inactive,> 16,4 to 16,4 to 8,Toxic,Activity [32]: Toxic
COc1c(N2C[C@@H]3CCCN[C@@H]3C2)c(F)cc2c(=O)c(C(=O)O)cn(C3CC3)c12 [MOXIFLOXACIN],–,–,–,–,–,–,–,–,–,–,–,–,–,–,–,–,–,–,–,–,Activity [33]: 3.7 log10CFU
CC[C@H](C)[C@H](NC(=O)CN)C(=O)NCC(=O)N[C@@H](C)C(=O)N[C@H](C(=O)N[C@@H](CC(C)C)C(=O)N[C@@H](CCCCN)C(=O)N[C@H](C(=O)N[C@@H](CC(C)C)C(=O)N[C@H](C(=O)N[C@H](C(=O)NCC(=O)N[C@@H](CC(C)C)C(=O)N1CCC[C@H]1C(=O)N[C@@H](C)C(=O)N[C@@H](CC(C)C)C(=O)N[C@H](C(=O)N[C@@H](CO)C(=O)N[C@@H](Cc1c[nH]c2ccccc12)C(=O)N[C@H](C(=O)NCCC[C@@H](CN)C(=O)N[C@@H](CCCNC(=N)N)C(=O)N[C@@H](CCCCN)C(=O)N[C@@H](CCCNC(=N)N)C(=O)N[C@@H](CCC(N)=O)C(=O)N[C@@H](CCC(N)=O)C(N)=O)[C@@H](C)CC)[C@@H](C)CC)[C@@H](C)O)[C@@H](C)O)C(C)C)C(C)C,> 16,–,4 to 8,–,Active,Active,–,–,–,–,–,–,–,–,0.24,inactive,> 16,4 to 16,4 to 8,Toxic,Activity [32]: Toxic
